Structures can show the parent of a compound that is named as a salt. Where two headings read alike, the source gives them in different places.
Assays:
[1] = test system: SUDHL5; assay: Induction of cytotoxicity (CellTiter-Glo, 5 h), SUDHL5; settings: read-out: Cytotox SUDHL5 [M] (median); SUDHL5 cells, cytotoxicity induction, CellTiter-Glo, 5 h incubation, median
[2] = test system: SUDHL5; assay: Anti-proliferative effect (CellTiter-Glo, 72 h), SUDHL5; type: cell-based; settings: SUDHL5 cells, antiproliferation, 72 h incubation, median, read-out: Antiproli SUDHL5 [M] (median)
Method in brief: (§1)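 Anti-proliferative activity is derived from ATP-based luminescence (CellTiter-Glo) in cells exposed to compound for 72 h at 37 °C, set against a time zero plate read at seeding.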

[3] = test system: SUDHL10; assay: Anti-proliferative effect (CellTiter-Glo, 72 h), SUDHL10; type: cell-based; settings: SUDHL10 cells, antiproliferation, 72 h incubation, median, read-out: Antiproli SUDHL10 [M] (median)
Method in brief: as §1

[4] = test system: SUDHL10; assay: Induction of caspase-3/7 activity (Caspase-Glo 3/7), SUDHL10; type: cell-based; settings: caspase-3/7 induction, SUDHL10 cells, 3 h treatment, median
Method in brief: (§2)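 Caspase-Glo 3/7 luminescence measured after 3 h compound exposure at 37 °C in SUDHL10 and SUDHL5 cells. EC50 values come from background-corrected signals, with curve bottom set to 1 and plateau set to maximal induction by the reference compound.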

[5] = test system: SUDHL5; assay: Induction of caspase-3/7 activity (Caspase-Glo 3/7), SUDHL5; type: cell-based; settings: caspase-3/7 induction, SUDHL5 cells, 3 h treatment, median
Method in brief: as §2

[6] = target: MCL-1 (Homo sapiens, UniProt Q07820); assay: Protein-protein interaction assay MCL-1/Noxa BH3 peptide (MCL-1 assay), TR-FRET; type: binding; settings: MBP-MCL-1 / Noxa BH3-derived peptide, median
MCL-1, sequence (Q07820 whole entry): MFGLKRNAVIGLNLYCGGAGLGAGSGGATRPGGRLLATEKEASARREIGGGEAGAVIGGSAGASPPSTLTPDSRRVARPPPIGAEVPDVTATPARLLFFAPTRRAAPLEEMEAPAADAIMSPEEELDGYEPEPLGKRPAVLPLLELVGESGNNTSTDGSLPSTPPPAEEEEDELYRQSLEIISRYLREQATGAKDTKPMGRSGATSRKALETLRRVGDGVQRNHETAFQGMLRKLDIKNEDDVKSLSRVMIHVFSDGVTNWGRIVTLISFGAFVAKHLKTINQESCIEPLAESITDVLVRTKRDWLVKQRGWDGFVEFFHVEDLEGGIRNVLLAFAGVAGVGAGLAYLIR
Method in brief: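 MBP-MCL-1 (1 nM final) was preincubated 10 min at 22 °C with compounds (11 concentrations, 0.1 nM–20 μM, duplicates) in Tris pH 7 buffer with NaCl, KF, Tween-20, DTT and BGG. After 1 h at 22 °C in the dark plus overnight at 4 °C, anti-MBP Eu-cryptate/streptavidin-XL665 TR-FRET was read; IC50 came from a 4-parameter fit.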

[7] = test system: SUDHL10; assay: Induction of cytotoxicity (CellTiter-Glo, 5 h), SUDHL10
[8] = test system: A2780; assay: Anti-proliferative effect (CellTiter-Glo, 72 h), A2780; type: cell-based; settings: A2780 cells, median, read-out: IC50 antiproliferation assay A2780 [M] (median)
Method in brief: as §1

[9] = read-out: Cytotox SUDHL10 [M] (median), SUDHL10 cells, cytotoxicity induction, CellTiter-Glo, 5 h incubation, median

Structure (SMILES) | IC50 [2] [M] | IC50 [3] [M] | EC50 [4] [µM] | EC50 [5] [µM] | IC50 [6] [µM] | IC50 [8] [M] | IC50 ([2]; Homo sapiens, SU-DHL-5, 72 h) [M] | IC50 ([3]; Homo sapiens, SU-DHL10, 72 h) [M] | EC50 ([5]; Homo sapiens, SU-DHL-5, 3 h) [µM] | IC50 ([8]; Homo sapiens, A2780, 72 h) [M] | EC50 ([4]; Homo sapiens, SU-DHL10, 3 h) [µM] | IC50 [1] [M] | IC50 [7, 9] [M] | IC50 ([7]; Homo sapiens, SU-DHL10, 5 h, read-out: Cytotox SUDHL10 [M] (median), SUDHL10 cells, cytotoxicity induction, CellTiter-Glo, 5 h incubation, median)
Cc1nn(C)c2c1-c1cccc3c(CCCOc4ccc(F)c5ccccc45)c(C(=O)O)n(c13)CCCCOC2 (single isomer, unassigned; enantiomer 1) [Example 022, 7-{3-[(4-fluoronaphthalen-1-yl)oxy]propyl}-1,3-dimethyl-1,10,11,12,13,15-hexahydropyrazolo[4′,3′:9,10][1,6]oxazacycloundecino[8,7,6-hi]indole-8-carboxylic Acid-N-ethylethanamine Salt (Enantiomer 1)] | – | – | 17.6 | – | 0.00163 | – | 7.53e-06 | 6.52e-06 | 4.19 | 2.59e-05 | – | 4.08e-06 | 2.02e-05 | –
Cc1cc(OCCCc2c(C(=O)O)n3c4c(cccc24)-c2c(C)nn(C)c2COCCCC3)cc(C)c1Cl (single isomer, unassigned; enantiomer 1) [Example 010, 7-[3-(4-chloro-3,5-dimethylphenoxy)propyl]-1,3-dimethyl-1,10,11,12,13,15-hexahydropyrazolo[4′,3′:9,10][1,6]oxazacycloundecino[8,7,6-hi]indole-8-carboxylic acid-N-ethylethanamine Salt (Enantiomer 1)] | – | 3.91e-06 | – | 6.62 | 0.00496 | – | 1.27e-05 | – | – | 2.06e-05 | 18.6 | 7.4e-06 | – | 2.27e-05

Continued, in another order:

IC50 [2] [M] | IC50 [3] [M] | EC50 [4] [µM] | EC50 [5] [µM] | IC50 [6] [µM] | IC50 [8] [M] | IC50 ([2]; Homo sapiens, SU-DHL-5, 72 h) [M] | IC50 ([3]; Homo sapiens, SU-DHL10, 72 h) [M] | EC50 ([5]; Homo sapiens, SU-DHL-5, 3 h) [µM] | IC50 ([8]; Homo sapiens, A2780, 72 h) [M] | EC50 ([4]; Homo sapiens, SU-DHL10, 3 h) [µM] | Structure (SMILES) | IC50 [1] [M] | IC50 [7, 9] [M] | IC50 ([7]; Homo sapiens, SU-DHL10, 5 h, read-out: Cytotox SUDHL10 [M] (median), SUDHL10 cells, cytotoxicity induction, CellTiter-Glo, 5 h incubation, median)
1.51e-05 | 1.17e-05 | > 33 | > 33 | 0.0543 | 1.52e-05 | – | – | – | – | – | COCCn1nc2c(c1C)-c1cccc3c(CCCOc4cccc5ccccc45)c(C(=O)O)n(c13)CCCCOC2 (single isomer, unassigned; enantiomer 2) [Example 108, 2-(2-methoxyethyl)-3-methyl-7-[3-(naphthalen-1-yloxy)propyl]-2,10,11,12,13,15-hexahydropyrazolo[4′,3′:9,10][1,6]oxazacycloundecino[8,7,6-hi]indole-8-carboxylic acid-N-ethylethanamine Salt (Enantiomer 2)] | > 3.3e-05 | > 3.3e-05 | –
> 3.3e-05 | 5.45e-06 | > 33 | > 33 | 0.327 | 2.61e-05 | – | – | – | – | – | Cc1nn(CC(F)(F)F)c2c1-c1cccc3c(CCCOc4cccc5ccccc45)c(C(=O)O)n(c13)CCCCOC2 (single isomer, unassigned; enantiomer 2) [Example 111, 3-methyl-7-[3-(naphthalen-1-yloxy)propyl]-1-(2,2,2-trifluoroethyl)-1,10,11,12,13,15-hexahydropyrazolo[4′,3′:9,10][,6]oxazacycloundecino[8,7,6-hi]indole-8-carboxy ic acid-N-ethylethanamine Salt (Enantiomer 2)] | > 3.3e-05 | > 3.3e-05 | –
1.79e-05 | 7.58e-06 | > 33 | > 33 | 0.0427 | 1.82e-05 | – | – | – | – | – | O=C(O)c1c(CCCOc2cccc3ccccc23)c2cccc3c2n1CCCCOCc1nn2c(c1-3)OCCC2 (single isomer, unassigned) [Example 249, 1-[3-(naphthalen-1-yloxy)propyl]-4,5,6,7,13,14-hexahydro-9H,12H-[1,3]oxazino[3″,2″:1′,5′]pyrazolo[4′,3′:9,10][1,6]oxazacycloundecino[8,7,6-hi]indole-2-carboxylic Acid] | > 3.3e-05 | > 3.3e-05 | –
